Data reported in patent US20160274120A1, “METHODS OF DETERMINING WHETHER THE WNT SIGNALING PATHWAY IS UPREGULATED IN A TUMOR” (ICAHN SCHOOL OF MEDICINE AT MOUNT SINAI, priority 2009, published 2016).

Columns and labels:
Type in all cases: cell-based, human
axin2 = test: Real time PCR quantification of axin2 mRNA expression in NSCLC cells
Procedure: (§1) Total RNA was isolated from cells using the Trizol Reagent (Invitrogen) according to the manufacturer's protocol. Semi-quantitative RT-PCR screen was performed using One Step RT-PCR Kit (Invitrogen) according to the manufacturer's protocol. PCR products were separated on 1% agarose gel. 5 μg total RNA was reverse transcribed using Superscript II reverse transcriptase (Invitrogen). Quantitative PCR was performed using SybrGreen 2× master mix (Roche) on a MJ Opticon or Stratagene MxPro3005. 50 ng cDNA were amplified as follows: 94° C. for 15 min, 94° C. for 15 s, 60° C. for 30 s, 72° C. for 1 min. Steps 2 through 4 were repeated for 40 cycles. Each reaction was performed in duplicate, and results of 3 independent experiments were used for statistical analysis. Relative mRNA expression levels were quantified using the ΔΔC(t) method (Pfaffl, 2001). Results were normalized to those for TATA Binding Protein (TBP). Primer sequences can be found in Tables 4 and 5.

TCF reporter activity = test: TCF mediated luciferase reporter activity (TOP/FOP) in NSCLC cell lines
Procedure: 24 hours before infection, stable reporter cell lines expressing TOP or FOP TCF luciferase and renilla luciferase were plated in 6 well plates at I×IO^5 cells/well. The following day cells were infected with lentiviruses expressing different Wnt antagonists, selected with 2 μg/ml puromycin for 3 days, lysed and processed for luciferase reporter assay using the dual luciferase reporter Kit (Promega) according to the manufacturer's protocol. Luciferase reporter activity was calculated by dividing the ratio TOP/RL by the FOP/RL ratio. Results were normalized to the results with vector transduced cultures.
analysis, cells were co-infected with TOP or FOP firefly luciferase mixed with a lentivirus expressing renilla luciferase (RL) used to normalize for infection efficiency (1:20-1:40 ratio). To assess the effects of FRP1 and DKK1 on TCF luciferase reporter activity, stable reporter cell lines were plated in 6 well plates and infected with vector, FRP1 or DKK1 lentiviruses. Cells were selected for 3 days with puromycin, lysed and processed for dual luciferase analysis. To generate stable inducible lines, cells were infected consecutively with tetracycline trans-activator (tTa) expressing lentivirus, selected for two weeks with 5-10 μg/ml blasticidin, followed by a second infection with lentiviruses expressing inducible FRP1, DKK1, DNTCF-4 or DNTCF-4-mOrange or empty vector, and selected for 4-7 days in 2 μg/ml puromycin in the presence of 10 ng/ml doxycycline. For induction of the antagonists, cells were trypsinized, washed with PBS and plated into 10 cm plates in the presence or absence of doxycyclin. Control cells expressing tTa or empty vector were processed in the same way. All infections were performed for 16 hr in the presence of 8 μg/ml polybrene.

Wnt2 = test: shRNA knockdown quantification of Wnt2 mRNA; details: H23 cells, lentiviral shRNA
Source text: (§2) An shRNA construct targeting human Wnt2 was obtained from Open Biosystems. The 21 bp sequence was 5′-[…]-3′ (SEQ ID NO: 1). An shRNA construct targeting GFP containing 21 bp sequence 5′ […]-3′ (SEQ ID NO: 2), was obtained from Addgene. An shRNA construct targeting human Wnt3a was generated and had the following sequence 5′-GGCGTGGCTTCTGCAGAA-3′ (SEQ ID NO: 61). Viruses were produced in 293T cells using FuGENE 6 (Roche) as described above.
as §1

Wnt3a = test: shRNA knockdown quantification of Wnt3a mRNA; details: H1819 cells, lentiviral shRNA
Source text: as §2, §1

Substance | axin2 expression (axin2; H23 cells, Wnt2 knockdown) | TCF mediated luciferase reporter activity (TCF reporter activity; H23 cells, Wnt2 knockdown) | knock down of Wnt2 mRNA expression (Wnt2) | axin2 expression (axin2; H1819 cells, Wnt3a knockdown) | TCF mediated luciferase reporter activity (TCF reporter activity; H1819 cells, Wnt3a knockdown) | knock down of Wnt3a mRNA expression (Wnt3a)
Wnt2 shRNA: shRNA construct targeting human Wnt2 from Open Biosystems, 5′-GCTCATGTACTCTCAGGACAT-3′ (SEQ ID NO: 1) (GCTCATGTACTCTCAGGDCAT; chemistry not fully specified) [reference compound] | significant decrease | significant decrease | 80% |  |  | 
Wnt3a shRNA: shRNA construct targeting human Wnt3a, 5′-GGCGTGGCTTCTGCAGAA-3′ (SEQ ID NO: 61) [reference compound] |  |  |  | significant decrease | significant decrease | 70%
